Patent US4371532A, “Malonamidooxadethiacephem compounds” (Shionogi & Co., Ltd., priority 1980, dated 1983)
Values belong to the compound of their own block, whether it stands above or below them.

Columns and labels:
[1] = system: Escherichia coli EC-14; experiment: Minimal inhibitory concentration in vitro by serial dilution method on Mueller Hinton agar; assay type: cell-based; conditions: disodium salts (10), E. coli EC-14, Mueller Hinton agar
[2] = system: P. aeruginosa CN-5; experiment: Protection of mice from infection caused by Pseudomonas aeruginosa CN-5; assay type: in vivo; conditions: CN5, ip, inoculation = 7 × 10^3, two subc. inj. (mg/kg each) 1 and 5 hrs after intraperitoneal inoculation
Protocol: Five representative compounds in the preceding examples are assayed for protection of mice from infection caused by Pseudomonas aeruginosa to give the effects as in the following table. | two subc. inj. (given mg/kg each) 1 and 5 | hrs after intraperitoneal inoculation | *inoculation = 7 × 10^3 -

[3] = system: P. aeruginosa PS-24; experiment: Protection of mice from infection caused by Pseudomonas aeruginosa PS-24; assay type: in vivo; conditions: PS24, ip, inoculation = 1 × 10^4, two subc. inj. (mg/kg each) 1 and 5 hrs after intraperitoneal inoculation
Protocol: Five representative compounds in the preceding examples are assayed for protection of mice from infection caused by Pseudomonas aeruginosa to give the effects as in the following table. | two subc. inj. (given mg/kg each) 1 and 5 | hrs after intraperitoneal inoculation | **inoculation = 1 × 10^4

SMILES: CCC(C(=O)O)C(=O)NC1(OC)C(=O)N2C(C(=O)O)=C(CSc3nnnn3C)COC21 (centres unmarked) [compound 2]
- ED50 [2]: 22.2 mg/kg
- ED50 [3]: 17.7 mg/kg

SMILES: CCC(C(=O)O)C(=O)NC1(OC)C(=O)N2C(C(=O)O)=C(CSc3nncs3)COC21 (centres unmarked) [compound 4]
- ED50 [2]: 32.5 mg/kg
- ED50 [3]: 15.5 mg/kg

SMILES: COC1(NC(=O)C(C(=O)O)c2ccc(O)cc2)C(=O)N2C(C(=O)O)=C(CSc3nnnn3C)COC21 (centres unmarked) [Reference, reference compound]
- ED50 [2]: 44.5 mg/kg
- ED50 [3]: 20.4 mg/kg

SMILES: COC1(NC(=O)C(C)C(=O)O)C(=O)N2C(C(=O)O)=C(CSc3nnnn3C)COC21 (centres unmarked) [compound 1]
- ED50 [2]: 22.3 mg/kg
- ED50 [3]: 11.1 mg/kg

SMILES: COC1(NC(=O)C(C)C(=O)O)C(=O)N2C(C(=O)O)=C(CSc3nncs3)COC21 (centres unmarked) [Het=Tdz No. 1]
- MIC ([1]; EC14, Het=Tdz): 0.39 µg/mL

SMILES: CCC(C(=O)O)C(=O)NC1(OC)C(=O)N2C(C(=O)O)=C(CSc3nncs3)COC21 (centres unmarked) [Het=Tdz No. 2]
- MIC ([1]; EC14, Het=Tdz): 0.2 µg/mL

SMILES: COC1(NC(=O)C(C)C(=O)O)C(=O)N2C(C(=O)O)=C(CSc3nncs3)COC21 (centres unmarked) [compound 3]
- ED50 [2]: 33.8 mg/kg
- ED50 [3]: 12.6 mg/kg

More lines, now with the values ahead:

- MIC ([1]; EC14, Het=Tetr): 12.5 µg/mL
SMILES: CCCCCCC(C(=O)O)C(=O)NC1(OC)C(=O)N2C(C(=O)O)=C(CSc3nnnn3C)COC21 (centres unmarked) [Het=Tetr No. 7]

- MIC ([1]; EC14, Het=Tdz): 0.39 µg/mL
SMILES: C=CCC(C(=O)O)C(=O)NC1(OC)C(=O)N2C(C(=O)O)=C(CSc3nncs3)COC21 (centres unmarked) [Het=Tdz No. 5]

- MIC ([1]; EC14, Het=Tetr): 0.1 µg/mL
SMILES: CCCC(C(=O)O)C(=O)NC1(OC)C(=O)N2C(C(=O)O)=C(CSc3nnnn3C)COC21 (centres unmarked) [Het=Tetr R=n-C3 H7]

- MIC ([1]; EC14, Het=Tetr): 1.56 µg/mL
SMILES: COC1(NC(=O)CC(=O)O)C(=O)N2C(C(=O)O)=C(CSc3nnnn3C)COC21 (centres unmarked) [Het=Tetr No. 1]

- MIC ([1]; EC14, Het=Tetr): 0.39 µg/mL
SMILES: COC1(NC(=O)C(CC(C)C)C(=O)O)C(=O)N2C(C(=O)O)=C(CSc3nnnn3C)COC21 (centres unmarked) [Het=Tetr No. 6]

- MIC ([1]; EC14, Het=Tdz): 0.2 µg/mL
SMILES: CCCC(C(=O)O)C(=O)NC1(OC)C(=O)N2C(C(=O)O)=C(CSc3nncs3)COC21 (centres unmarked) [Het=Tdz No. 3]

- MIC ([1]; EC14, Het=Tetr): 0.2 µg/mL
SMILES: COC1(NC(=O)C(C)C(=O)O)C(=O)N2C(C(=O)O)=C(CSc3nnnn3C)COC21 (centres unmarked) [Het=Tetr No. 2]

- MIC ([1]; EC14, Het=Tetr): 0.1 µg/mL
SMILES: CCC(C(=O)O)C(=O)NC1(OC)C(=O)N2C(C(=O)O)=C(CSc3nnnn3C)COC21 (centres unmarked) [Het=Tetr No. 3]

- MIC ([1]; EC14, Het=Tetr): 0.2 µg/mL
SMILES: C=CCC(C(=O)O)C(=O)NC1(OC)C(=O)N2C(C(=O)O)=C(CSc3nnnn3C)COC21 (centres unmarked) [Het=Tetr No. 8]

- MIC ([1]; EC14, Het=Tdz): 0.39 µg/mL
SMILES: CCCCC(C(=O)O)C(=O)NC1(OC)C(=O)N2C(C(=O)O)=C(CSc3nncs3)COC21 (centres unmarked) [Het=Tdz No. 4]

- MIC ([1]; EC14, Het=Tetr): 0.39 µg/mL
SMILES: COC1(NC(=O)C(C(=O)O)C(C)C)C(=O)N2C(C(=O)O)=C(CSc3nnnn3C)COC21 (centres unmarked) [Het=Tetr No. 5]
